Data from EP0556947A1, “Use of M1-selective antimuscarinic pyridobenzodiazepinones for the treatment and prevention of axial myopia” (MERCK & CO. INC., priority 1992, dated 1993).
Where two headings read alike, the source gives them in different places.

Columns and labels:
M₁ receptors = target: T1, M₁ receptors (Rattus norvegicus, UniProt P08482); assay: ³H-pirenzepine radioligand binding assay, rat cerebral cortex; details: for selectivity for M₁ than for M₃ receptors: M₁ (rat cerebral cortex) versus M₃ (rabbit iris + ciliary body) binding; for Ki: read-out: M1 Ki
T1 construct: M₁ receptors in rat cerebral cortex were labeled with ³H-pirenzepine; from tissue; host or cells: rat cerebral cortex
T1 sequence (P08482 1-460): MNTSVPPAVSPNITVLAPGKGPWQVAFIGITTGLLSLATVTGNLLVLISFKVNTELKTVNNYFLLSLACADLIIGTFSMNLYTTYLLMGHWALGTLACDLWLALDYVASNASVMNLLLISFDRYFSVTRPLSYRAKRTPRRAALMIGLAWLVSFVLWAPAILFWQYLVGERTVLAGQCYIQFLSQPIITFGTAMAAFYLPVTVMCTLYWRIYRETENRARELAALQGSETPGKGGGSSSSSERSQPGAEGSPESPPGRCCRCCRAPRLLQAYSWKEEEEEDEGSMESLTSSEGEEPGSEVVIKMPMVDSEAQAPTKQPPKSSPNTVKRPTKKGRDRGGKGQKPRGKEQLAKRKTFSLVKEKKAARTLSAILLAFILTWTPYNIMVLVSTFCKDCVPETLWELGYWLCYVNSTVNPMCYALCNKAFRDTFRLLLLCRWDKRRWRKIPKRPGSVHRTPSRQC

myopia = details: 1.0% atropine applied topically at bedtime, treated eye, one year per eye; cited from earlier work
M₂ receptors = target: T2, M₂ receptors (Rattus norvegicus, UniProt P10980); assay: ³H-AFDX-384 radioligand binding assay, rat heart; details: ³H AFDX-384 binding; for Ki: mean of 3-7 determinations ± SEM, read-out: M2 Ki
T2 construct: ³H-AFDX-384 labeled M₂ receptors in rat heart; from tissue; host or cells: rat heart
T2 sequence (P10980 1-466): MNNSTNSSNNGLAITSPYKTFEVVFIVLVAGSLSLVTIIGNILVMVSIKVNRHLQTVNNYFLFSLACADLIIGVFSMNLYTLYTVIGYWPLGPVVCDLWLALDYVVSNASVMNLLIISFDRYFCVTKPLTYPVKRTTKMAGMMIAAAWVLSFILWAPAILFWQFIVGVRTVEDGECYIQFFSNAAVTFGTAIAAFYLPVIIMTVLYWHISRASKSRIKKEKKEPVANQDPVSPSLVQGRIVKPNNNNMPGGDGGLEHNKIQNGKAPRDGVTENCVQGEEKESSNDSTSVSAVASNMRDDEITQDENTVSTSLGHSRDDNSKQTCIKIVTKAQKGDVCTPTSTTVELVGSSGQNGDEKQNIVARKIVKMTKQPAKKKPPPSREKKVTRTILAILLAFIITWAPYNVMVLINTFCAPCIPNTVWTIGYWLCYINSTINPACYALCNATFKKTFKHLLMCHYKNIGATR

M₃ receptors = target: T3, M₃ receptors (Oryctolagus cuniculus, UniProt G1U308); assay: ³H-QNB radioligand binding assay, rabbit iris + ciliary body (minus ciliary processes)
T3 construct: M₃ receptors in rabbit iris + ciliary body; from tissue; host or cells: rabbit iris + ciliary body (minus ciliary processes)

Form-deprivation myopia = assay: form-deprivation myopia model in chicks (eyelid suture); assay type: in vivo, White Leghorn chicks; details: expected from M₁ potency relative to pirenzepine; no data reported
Procedure: Form-deprivation myopia is induced in day-old White Leghorn chicks under aseptic conditions and other anesthesia by eyelid suture to one eye. The chicks are maintained on a 12-hour light:dark cycle. […] Drug is injected daily subconjunctivally during the light cycle. At two weeks of age the animals are sacrificed and axial and equatorial dimensions of unfixed eyes are measured with vernier calipers independently by two observers.

[1] = tested on: female Dunkin Hartley albino guinea pigs; assay: guinea pig maximization test (sensitization); assay type: in vivo; details: challenge phase, readings on days 24 and 25
Procedure: The guinea pig maximization test is required by the U.S. Food and Drug Administration of all drugs intended for ophthalmic administration. […] In Phase I, which is the induction phase, on day 1 two intradermal injections at the highest generally tolerated concentration of the test material were administered in the shaved intercapsular area (O.1ml of the test agent in a 50:50 mixture of Freund's complete adjuvant and distilled water). On day 7, approximately 400mg of a mixture of 10% sodium laurel sulfate in petrolatum was applied to the shaved intercapsular area. On day 8, 400mg of a mixture of the test compound in petrolatum was applied, on a 2 x 4 cm piece of Whatman paper to the shaved intercapsular area, along with Blenderm tape.
In Phase II, which is the challenge phase, on day 22, 200mg of petrolatum was applied to the shaved right flank, while 200mg of test compound at the highest non-irritant concentration (micronized in petrolatum) was applied to the shaved left flank, with each application being occluded for 24 hours.

[2] = tested on: axial enlargement of the eye; details: ocular administration under image deprivation; cited from earlier work
[3] = ³H-QNB binding, rabbit iris + ciliary body (minus ciliary processes)
[4] = ³H Pirenzepine binding, rat cerebral cortex
[5] = ³H-QNB binding, rabbit iris + ciliary body (minus ciliary processes), mean of 3-7 determinations ± SEM, read-out: M3 Ki

T3 sequence (G1U308 1-599): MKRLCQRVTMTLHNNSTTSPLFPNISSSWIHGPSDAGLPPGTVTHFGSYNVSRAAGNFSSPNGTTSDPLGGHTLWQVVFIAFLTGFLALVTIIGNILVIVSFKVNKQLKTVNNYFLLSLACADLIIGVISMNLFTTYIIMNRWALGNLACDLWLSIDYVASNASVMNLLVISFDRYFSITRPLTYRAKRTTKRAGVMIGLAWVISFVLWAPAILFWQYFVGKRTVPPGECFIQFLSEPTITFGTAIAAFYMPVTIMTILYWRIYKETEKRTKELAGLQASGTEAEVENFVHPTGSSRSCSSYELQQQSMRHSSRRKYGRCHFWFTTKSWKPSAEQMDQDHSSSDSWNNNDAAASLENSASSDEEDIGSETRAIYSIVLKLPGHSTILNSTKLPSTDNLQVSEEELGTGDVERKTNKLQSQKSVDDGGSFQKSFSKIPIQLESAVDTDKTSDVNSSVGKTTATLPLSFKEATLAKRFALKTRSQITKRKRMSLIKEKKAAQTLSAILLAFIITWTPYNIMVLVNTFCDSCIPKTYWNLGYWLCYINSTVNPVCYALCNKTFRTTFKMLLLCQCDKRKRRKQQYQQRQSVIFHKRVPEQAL

Row | SMILES | M2 nH (Hill Coefficient) (M₂ receptors) | M3 nH (Hill Coefficient) (M₃ receptors; [3]) | selectivity for M₁ than for M₃ receptors (M₁ receptors) [fold] | Ki (M₁ receptors) [nM] | M1 nH (Hill Coefficient) (M₁ receptors; [4]) | effectiveness in myopia therapy (Form-deprivation myopia) | grade of skin reaction ([1]; in any test animal) | Ki (M₂ receptors) [nM] | Ki (M₃ receptors; [5]) [nM] | also measured
1 | CN1[C@@H]2CC[C@H]1C[C@@H](OC(=O)C(CO)c1ccccc1)C2 (some centres unmarked) [Atropine, reference compound] | 1.05 | 1.1 |  |  |  |  |  |  |  | M1 nH (Hill Coefficient) (M₁ receptors): 1.5; progression of the myopia (myopia): halted; Ki (M₃ receptors): 0.37 nM
2 | CN1CCC(C(=O)N2c3ccccc3C(=O)Nc3cccnc32)CC1 [Nuvenzepine, 11-(1-Methylpiperidin-4-carbonyl)-5,11-dihydro-6H -pyrido[2,3-b][1,4]benzodiazepin-6-one] | 1.03 | 0.80 | 20 | 1.5 | 0.9 | at least as effective as pirenzepine | 0 | 248 | 29.7 | 
3 | CN1CCN(CC(=O)N2c3ccccc3C(=O)Nc3cccnc32)CC1 [Pirenzepine, reference compound] |  |  |  |  |  |  |  |  |  | grade of skin reaction ([1]; in six of nine animals): 1; grade of skin reaction ([1]; in two of nine animals): 2
4 | CN1CCCC(C(=O)N2c3ccccc3C(=O)Nc3cccnc32)C1 (centres unmarked) [Rispenzepine, 11-(1-Methylpiperidin-3-carbonyl)-5,11-dihydro-6H -pyrido[2,3-b][1,4]benzodiazepin-6-one] | 1.00 | 0.84 | 15 | 2.61 | 0.9 | at least as effective as pirenzepine | 0 | 226 | 38.9 | 
5 | CN1CCc2cccc3c2[C@H]1Cc1ccc(O)c(O)c1-3 [apOmorphine] |  |  |  |  |  |  |  |  |  | axial enlargement of the eye [2]: inhibit or actually prevent
